Test results from US4510307A, “6-Quinazolinesulfonyl derivatives and process for preparation thereof” (Asahi Kasei Kogyo Kabushiki Kaisha, priority 1980, dated 1985).
pEC50, pIC50: −log10 of the molar value. Like-named read-outs stand apart in the source and are kept apart here.

Legend:
mesenteric artery = test: Relaxation of Mesenteric Artery (isolated rabbit mesenteric artery contracted with KCl); conditions: Oryctolagus cuniculus, concentration for 50% relaxation, KCl 15~20 mM contraction, read-out: Relaxation of Mesenteric Artery ED50
Experimental: When, for example, 1-[4-(N-methyl-N-cyclohexylamino)-6-quinazolinesulfonyl]-4-(2-ethoxy-2-phenylethyl)piperazine was added and a complete relaxation was designated 100%, the concentration which could bring about a relaxation of 50%, i.e., ED50 was 0.8 μM.
After a home bred rabbit of a Japanese species weighing about 3 Kg was subjected to bloodletting, resulting in death and then to abdominal incision, the mesenteric artery was taken out, cut into helicoids of 2 mm×25 mm and suspended in a 20 ml organ bath filled with a Krebs-Henseleit solution into which a mixed gas of 95% by volume of O2 and 5% by volume of CO2 was introduced and one end of the artery was connected with an isometric transducer. When a load of 1.5 g was applied to the artery, the contraction and the relaxation of the artery was recorded as a weight on the transducer (a product of Nippon Koden K.K., Japan, "FD Pickup TB-912T"). The relaxation of the mesenteric artery was observed by adding the 6-quinazolinesulfonyl derivatives and their pharmaceutically acceptable acid addition salts to the mesenteric artery at the condition of about one half of the maxinum contraction with KCl at a KCl concentrantion of 15~20 mM. When the complete relaxation of the mesenteric artery was designated 100%, the concentration of the 6-quinazolinesulfonyl derivatives and their pharmaceutically acceptable acid addition salts which brought about a relaxation of 50% is shown in Table 6.

[1] = test system: human blood platelet cAMP PDE; test: PDE inhibition, c-AMP-decomposing PDE of human blood platelet; format: biochemical; conditions: human blood platelet cAMP PDE specimen; read-out: PDE Inhibition I50, Human Blood Platelet (PII)
From the text: (§1) More specifically, from the results of the experiment using an enzyme specimen in accordance with the reports [Mol. Pharmacol., 15, 49 (1979) and Biochem. Biophys. […] The 6-quinazolinesulfonyl derivatives and the pharmaceutically acceptable acid addition salts have inhibited the decomposition due to the enzyme specimens of substrate c-AMP and guanosine-3',5'-monophosphate (abbreviated "c-GMP"). This means that the compounds of this invention can inhibit the decomposition of the c-AMP and maintain the c-AMP in tissue at a high concentration. In other words, the compounds of this invention are effective for the improvement and medical treatment of a disease accompanied by reduction in the c-AMP and a disease accompanied by infiltration of calcium into tissue, for example, the contraction and convulsion of vascular smooth muscle.
(§2) As the enzyme specimens, human blood platelet and hog cerebral cortex were partially purified in accordance with reports [Mol. Pharmacol., 15, 49 (1979) and Biochem. Biophys. Res. Comun., 84, 277 (1978)]. The effect of the 6-quinazolinesulfonyl derivatives and their pharmaceutically acceptable acid addition salts of this invention on the c-AMP-decomposing PDE and the calmodulin or calcium-dependent cyclic nucleotide PDE was examined under the conditions in accordance with the above described reports. […] The activity of the compounds of this invention is expressed by the concentration which is required to inhibit 50% of the decomposition of the c-AMP-decomposing PDE, i.e., I50 by μM.
*^1 The human blood platelet cAMP PDE specimen was employed.

[2] = test system: hog cerebral cortex calmodulin or calcium-dependent cyclic nucleotide PDE; test: PDE inhibition, calmodulin or calcium-dependent cyclic nucleotide PDE of hog cerebral cortex; format: biochemical
From the text: as §1, §2
*^2 The enzyme activity was measured by using calmodulin and Ca^+
dependent specimens. The nonactivation was measured in the presence of
0.2 mM of EGTA, while the activation was measured in the presence of 0.2
mM of CaCl2 and 8 units of calmodulin.

femoral artery = test: Effect on blood flow volume of femoral artery of dog; format: in vivo, dog of mixed breed; conditions: Canis lupus familiaris; 1 mg/Kg intravenous; anesthetized dog; read-out: Increased Blood Flow Volume in Femoral Artery
Experimental: (§3) The effect of the 6-quinazolinesulfonyl derivatives and the pharmaceutically acceptable acid addition salts of this invention on the vasodilation of the femoral and vertebral arteries can be measured by anesthetizing a dog of mixed breed weighing 8 to 15 Kg by an intravenous administration of 35 mg/Kg of pentbarbital, providing an acute type probe (a product of Nippon Koden K.K., Japan) with the femoral and vertebral arteries, administering the 6-quinazolinesulfonyl derivatives and the pharmaceutically acceptable acid addition salts to the femoral vein through a polyethylene tube inserted into the femoral vein side chain and measuring the blood flow volume with an electromagnetic flowmeter (a product of Nippon Koden K.K., Japan, "MF-27"). For example, when 1 mg/Kg of 1-[4-(N-methyl-N-cyclohexylamino)-6-quinazolinesulfonyl]-4-(2-ethoxy-2- phenylethyl)piperazine was intravenously administered, the increased blood flow volume in the femoral artery was 33% and the increased blood flow volume in the vertebral artery was 59%.
(§4) The effect on the vasodilatation of the femoral and vertebral arteries was measured by anesthetizing a dog of mixed breed weighing 8 to 15 Kg by an intravenous administration of 35 mg/Kg of pentbarbital, providing an acute type probe (a product of Nippon Koden K.K., Japan) with the femoral and vertebral arteries, administering the 6-quinazolinesulfonyl derivatives and their pharmaceutically acceptable acid addition salts to the femoral vein through a polyethylene tube inserted into the femoral vein side chain and measuring the blood flow volume with an electromagnetic blood flowmeter (a product of Nippon Koden K.K., Japan, "MF-27").

vertebral artery = test: Effect on blood flow volume of vertebral artery of dog; format: in vivo, dog of mixed breed; conditions: Canis lupus familiaris; 1 mg/Kg intravenous; anesthetized dog; read-out: Increased Blood Flow Volume in Vertebral Artery
Experimental: as §3, §4

[3] = Acute toxicity, intravenous administration in mice; conditions: mouse, in vivo, male ddY-strain mice
Experimental: Furthermore, when the 6-quinazolinesulfonyl derivatives and the pharmaceutically acceptable acid addition salts of this invention are intravenously and arterially administered for the above described purposes, any remarkable toxicity cannot be observed.
The acute toxicity of the 6-quinazolinesulfonyl derivatives and their pharmaceutically acceptable acid addition salts was measured by giving male ddY-strain mice an intravenous administration.

[4] = activated: 0.2 mM CaCl2 and 8 units of calmodulin, read-out: PDE Inhibition I50, Hog Cerebral Cortex (PII), Activated
[5] = non-activated: presence of 0.2 mM EGTA
[6] = non-activated: presence of 0.2 mM EGTA, read-out: PDE Inhibition I50, Hog Cerebral Cortex (PII), Non-activated

SMILES	pEC50 (mesenteric artery)	pIC50 [1]	pIC50 [2, 4]	PDE Inhibition I50, Hog Cerebral Cortex (PII), Non-activated [2, 5]	change in vivo at 1 mg/kg (femoral artery) [%]	change in vivo at 1 mg/kg (vertebral artery) [%]	LD50 [3] [mg/kg]	pIC50 [2, 6]
CCCCN(CCCC)c1ncnc2ccc(S(=O)(=O)N3CCN(CC(OCC)c4ccccc4)CC3)cc12 (centres unmarked) [Compound (4), 1-(4-dibutylamino-6-quinazolinesulfonyl)-4-(2-ethoxy-2-phenylethyl)-piperazine]	5.89	3.02	3.43	not inhibited	33	50	135	–
CCOC(CN1CCN(S(=O)(=O)c2ccc3ncnc(N4CCCCC4)c3c2)CC1)c1ccccc1 (centres unmarked) [Compound (6), 1-(4-piperidino-6-quinazolinesulfonyl)-4-(2-ethoxy-2-phenylethyl)-piperazine]	5.77	3.07	4.51	–	31	51	108	4.82
O=S(=O)(c1ccc2ncnc(N3CCCCC3)c2c1)N1CCN(CC=Cc2ccccc2)CC1 [Compound (9), 1-(4-piperidino-6-quinazolinesulfonyl)-4-cinnamylpiperazine]	5.52	3.15	4.70	not inhibited	24	42	133	–
CCOC(CN1CCN(S(=O)(=O)c2ccc3ncnc(N(C)C4CCCCC4)c3c2)CC1)c1ccccc1 (centres unmarked) [Compound (19), 1-[4-(N-methyl-N-cyclohexylamino)-6-quinazolinesulfonyl]-4-(2-ethoxy-2-phenylethyl)piperazine]	6.10	3.12	5.40	–	33	59	63	5.40
CCOC(CN1CCN(S(=O)(=O)c2ccc3ncnc(N(C)c4ccccc4)c3c2)CC1)c1ccccc1 (centres unmarked) [Compound (23), 1-[4-(N-methylanilino)-6-quinazolinesulfonyl]-4-(2-ethoxy-2-phenylethyl)-piperazine]	5.66	3.05	4.96	–	25	38	98	4.62
CCOC(CN1CCN(S(=O)(=O)c2ccc3ncnc(N(C)Cc4ccccc4)c3c2)CC1)c1ccccc1 (centres unmarked) [Compound (25), 1-[4-(N-methyl-N-benzylamino)-6-quinazolinesulfonyl]-4-(2-ethoxy-2-phenylethyl)piperazine]	6.10	3.07	5.15	–	36	48	72	5.15
CC(C)COC(CN1CCN(S(=O)(=O)c2ccc3ncnc(N(C)C4CCCCC4)c3c2)CC1)c1ccccc1 (centres unmarked) [Compound (28), 1-[4-(N-methyl-N-cyclohexylamino)-6-quinazolinesulfonyl]-4-(2-isobutoxy-2-phenylethyl)piperazine]	5.89	–	–	–	–	–	–	–
NCCNS(=O)(=O)c1ccc2ncnc(N3CCCCC3)c2c1 [Compound (29), N-(2-aminoethyl)-4-piperidino-6-quinazolinesulfonamide]	4.48	–	–	–	–	–	–	–
NCCCNS(=O)(=O)c1ccc2ncnc(N3CCCCC3)c2c1 [Compound (30), N-(3-aminopropyl)-4-piperidino-6-quinazolinesulfonamide]	4.52	–	–	–	–	–	–	–
NCCCCNS(=O)(=O)c1ccc2ncnc(N3CCCCC3)c2c1 [Compound (31), N-(4-aminobutyl)-4-piperidino-6-quinazolinesulfonamide]	4.68	3.52	4.12	–	28	48	45	4.06
NCCCCCCNS(=O)(=O)c1ccc2ncnc(N3CCCCC3)c2c1 [Compound (32), N-(6-aminohexyl)-4-piperidino-6-quinazolinesulfonamide]	4.62	3.28	3.95	–	21	36	95	4.03
NCCCCCCCCCCNS(=O)(=O)c1ccc2ncnc(N3CCCCC3)c2c1 [Compound (33), N-(10-aminodecyl)-4-piperidino-6-quinazolinesulfonamide]	4.47	–	–	–	–	–	–	–
NCCCCNS(=O)(=O)c1ccc2ncnc(N3CCCC3)c2c1 [Compound (34), N-(4-aminobutyl)-4-(1-pyrrolidinyl)-6-quinazolinesulfonamide]	4.57	–	–	–	–	–	–	–
CN(C)c1ncnc2ccc(S(=O)(=O)NCCCCN)cc12 [Compound (35), N-(4-aminobutyl)-4-dimethylamino-6-quinazolinesulfonamide]	4.27	–	–	–	–	–	–	–
CCN(CC)c1ncnc2ccc(S(=O)(=O)NCCCCN)cc12 [Compound (36), N-(4-aminobutyl)-4-diethylamino-6-quinazolinesulfonamide]	4.30	–	–	–	–	–	–	–
CCCCN(CCCC)c1ncnc2ccc(S(=O)(=O)NCCCCN)cc12 [Compound (37), N-(4-aminobutyl)-4-dibutylamino-6-quinazolinesulfonamide]	5.10	3.60	4.36	–	24	41	103	3.96
CCCCCCN(CCCCCC)c1ncnc2ccc(S(=O)(=O)NCCCCN)cc12 [Compound (38), N-(4-aminobutyl)-4-dihexylamino-6-quinazolinesulfonamide]	4.92	–	–	–	–	–	–	–
